Laboratory results reported in patent US20060051321A1, “Biological compositions and methods for treatment of testicular cancer” (Ultra Biotech Limited, priority 2003, published 2006).

What was measured:
Format in all cases: in vivo
[1] = tested on: testicular cancer cell line CRL-1973; assay: Tumor growth in Wistar rat model of human testicular cancer (Example 8); settings: rats injected s.c. with CRL-1973 cells; 30 consecutive days of treatment; sacrificed on 31st day from tumor inoculation
Source text: The following example illustrates the benefit of a biological composition of the invention in a Wistar rat model of human testicular cancer. The growth of the tumor in the rats was studied.
(§1) Numerous animal studies have reported the use of Wistar rat models in the study of human testicular cancer. There is very high success rate for transplanting testicular tumor CRL-1973 cells in rats. The testicular tumor cell line CRL-1973 can be ordered from the American Type Culture Collection.
(§2) The biological composition comprising 10^8 cells per ml of activated and conditioned yeast cells of the strain Saccharomyces cerevisiae Hansen strain AS2.182 was prepared by the methods described in Section 5.1 and subsections therein.
The animals used for the experiments were male Wistar rats (obtainable from the Chinese Academy of Military Medical Sciences, Beijing, China). About 2×10^7 viable tumor cells of the testicular cancer cell line CRL-1973 (obtainable from the Cancer Institute, Chinese Academy of Medical Sciences, Beijing, China) in about 0.2 ml culture suspension was injected subcutaneously into the animals. […]
The rats received the biological compositions, untreated yeast cells, VLB or saline on the same day as the tumor cells were transplanted. […] The weight of the rats and the weight of the tumor were determined by standard techniques.

[2] = tested on: testicular cancer cell line CRL-1973; assay: Survival in Wistar rat model of human testicular cancer (Example 9); settings: for Number of live animals remaining in the groups after 30 days of treatment: 30 rats per group
Protocol: The survival time of mice after tumor injection and treatment was studied.
as §2
The animals were prepared in a similar manner as described in Section 8.1.
After injection with CRL-1973 cells, the rats were divided into 4 experimental groups of ten rats per group and one control group. The four experimental groups were triplicated (ie., using a total of 120 rats in the experimental groups). In group 2AY, the rats received 1.2 ml of the biological composition once per day. In group 2NY, the rats received 1.2 ml of the untreated yeast cells once per day. […] In group 2CK1, the rats received 1.2 ml of physiological saline once per day.
(§3) The rats received the biological compositions, untreated yeast cells, VLB or saline on the same day as the tumor cells were transplanted. The rats in group 2CK2 also started receiving saline on the same day as the other four groups. The biological compositions, untreated yeast cells and saline were administered orally by a feeding tube and the VLB by intravenous injection for 30 consecutive days. The mice were observed over 6 months from the day of tumor inoculation and survival was recorded. The weight of the mice and the weight of the tumor were determined by standard techniques.

[3] = tested on: testicular cancer cell line HTB-104; assay: Tumor growth in kun ming mouse model of human testicular cancer (Example 6); settings: mice injected s.c. with HTB-104 cells; 30 consecutive days of treatment; sacrificed on 31st day from tumor inoculation
Source text: The following example illustrates the benefit of a biological composition of the invention in a kun ming mouse model of human testicular cancer. The growth of tumors in the mice was studied.
as §1, with “kun ming mouse” for “Wistar rat”, “almost a 100%” for “very high”, “HTB-104” for “CRL-1973”, “mice.” for “rats.”
as §2
The animals used for the experiments were kun ming mouse (obtainable from the Chinese Academy of Military Medical Sciences, Beijing, China). Only males 20 to 22 gram in body weight, 6 to […] old were used. […]
The mice received the biological compositions, untreated yeast cells, BLM or saline on the same day as the tumor cells were transplanted. […] On the 31st day from tumor inoculation, the mice were sacrificed and the weight of the mice and the weight of the tumor were determined by standard techniques.

[4] = tested on: testicular cancer cell line HTB-104; assay: Survival in kun ming mouse model of human testicular cancer (Example 7); settings: for Number of live animals remaining in the groups after 30 days of treatment: 30 mice per group
Protocol: The following example illustrates the benefit of a biological composition of the invention in a kun ming mouse model of human testicular cancer. The survival time of rats after tumor injection and treatment was studied.
The biological composition comprising 10^8 cells per ml of activated and conditioned yeast cells of the strain Saccharomyces cerevisiae Hansen strain AS2. 182 was prepared by the methods described in Section 5.1 and subsections therein.
The animals were prepared in a similar manner as described in Section 6.1.
After injection with HTB-104 cells, the mice were divided into 4 experimental groups of ten mice per group and one control group. The four experimental groups were triplicated (i.e., using a total of 120 mice in the experimental groups). In group 2AY, the mice received 0.5 ml of the biological composition once per day. In group 2NY, the mice received 0.5 ml of the untreated yeast cells once per day. In group 2BLM, the mice were injected subcutaneously with 0.8 mg of bleomycin (BLM) per kg body weight per day. In group 2CK1, the mice received 0.5 ml of physiological saline once per day.
as §3, with “The mice” for “The rats”, “cells, BLM” for “cells, VLB”, “cells or” for “cells and”, “the BLM” for “the VLB”, “by subcutaneous” for “by intravenous”

[5] = 0 month after cessation of treatment
[6] = 1 month after cessation of treatment
[7] = 2 months after cessation of treatment
[8] = 3 months after cessation of treatment
[9] = 4 months after cessation of treatment
[10] = 5 months after cessation of treatment
[11] = 6 months after cessation of treatment

Row | Compound | mean weight of tumor nodules and standard deviation [1] [g] | Number of live animals remaining in the groups after 30 days of treatment [2, 5] | Number of live animals remaining in the groups after 30 days of treatment [2, 6] | Number of live animals remaining in the groups after 30 days of treatment [2, 7] | Number of live animals remaining in the groups after 30 days of treatment [2, 8] | Number of live animals remaining in the groups after 30 days of treatment [2, 9] | Number of live animals remaining in the groups after 30 days of treatment [2, 10] | Number of live animals remaining in the groups after 30 days of treatment [2, 11] | death of all animals, time from injection of tumor cells ([2]; rats bearing CRL-1973 cells, 30 days of treatment) | mean weight of tumor nodules and standard deviation ([2]; rats that survived, observed over 6 months from tumor inoculation) | mean weight of tumor nodules and standard deviation [3] [mg] | Number of live animals remaining in the groups after 30 days of treatment [4, 5] | Number of live animals remaining in the groups after 30 days of treatment [4, 6] | Number of live animals remaining in the groups after 30 days of treatment [4, 7] | Number of live animals remaining in the groups after 30 days of treatment [4, 8] | Number of live animals remaining in the groups after 30 days of treatment [4, 9] | Number of live animals remaining in the groups after 30 days of treatment [4, 10] | Number of live animals remaining in the groups after 30 days of treatment [4, 11] | death of all animals, time from injection of tumor cells ([4]; mice bearing HTB-104 cells, 30 days of treatment) | mean weight of tumor nodules and standard deviation ([4]; mice that survived, observed over 6 months from tumor inoculation)
1 | CC[C@]1(O)C[C@@H]2CN(CCc3c([nH]c4ccccc34)[C@@](C(=O)OC)(c3cc4c(cc3OC)N(C)[C@H]3[C@@](O)(C(=O)OC)[C@H](OC(C)=O)[C@]5(CC)C=CCN6CC[C@]43[C@@H]65)C2)C1 [VLB, vinblastine] | 2.67 ± 2.65 | 30 | 30 | 22 | 9 | 1 | 0 | 0 | all died after five months | all animals dead | – | – | – | – | – | – | – | – | – | –
2 | bleomycin [BLM] | – | – | – | – | – | – | – | – | – | – | 1.13 ± 0.65 | 30 | 27 | 16 | 0 | 0 | 0 | 0 | all died after three months | all animals dead
